Reference: US8993258B2, “Fluorinated voltage sensitive dyes, preparation thereof, and optical methods of use” (The University of Connecticut, priority 2012, dated 2015)

Key:
[1] = Fluorescence emission spectra and fluorescence quantum yield (FQY) of dyes; assay type: physicochemical
Excerpt: (§1) Similar methods were used to prepare additional dyes.

[2] = Photobleaching rate under white light from a xenon lamp; assay type: physicochemical; conditions: single exponential decay fit of absorbance
Summary of the method: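 Photostability was scored as a photobleaching rate, expressed relative to the unsubstituted parent dye. Dyes were irradiated with white light from a xenon lamp while absorbance was monitored. The rate was derived by fitting a single exponential decay to the absorbance over time.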

[3] = Voltage sensitivity: fluorescence change for a 100 millivolt step in membrane potential
[4] = One-photon absorption spectra of dyes (λmax abs, logε); assay type: physicochemical
Excerpt: as §1

Row | Structure (SMILES) | FQY ([1]; Ethanol) | λmax em ([1]; Ethanol) | FQY ([1]; Lipid vesicles) | λmax em ([1]; Lipid vesicles) | FQY ([1]; PBS buffer) | Photobleaching rate (Relative to unsubstituted dye) [2] | logε ([4]; Ethanol) | λmax abs ([4]; Ethanol) | logε ([4]; Lipid vesicles) | λmax abs ([4]; Lipid vesicles) | logε ([4]; PBS buffer) | λmax abs ([4]; PBS buffer) | also measured
1 | CCCCN(CCCC)c1ccc2cc(/C=C(\F)c3cc[n+](CCC[N+](CC)(CC)CC)cc3)ccc2c1 [PY3006] | 0.001 | 720 nm | 0.16 | 636 nm | — (FQY < 0.001) | 0.63 | 4.5 | 539 nm | 4.4 | 488 nm | 4.2 | 493 nm | Voltage sensitivity ΔF/F per 100 mV ([3]; Ex/Em 578/>695 nm): 12% 578/ >695
2 | CCCCN(CCCC)c1ccc2cc(/C=C/c3cc[n+](CCC[N+](CC)(CC)CC)cc3F)ccc2c1 [PY3128] | 0.002 | 720 nm | 0.26 | 632 nm | — (FQY < 0.001) | 0.63 | 4.4 | 545 nm | 4.3 | 495 nm | 4.2 | 506 nm | Voltage sensitivity ΔF/F per 100 mV ([3]; Ex/Em 590/>695 nm): 6% 590/ >695
3 | CCCCN(CCCC)c1ccc2cc(/C=C/c3cc[n+](CCC[N+](CC)(CC)CC)cc3)ccc2c1F [PY3174] | 0.007 | 704 nm | 0.25 | 610 nm | 0.002 | 0.83 | 4.4 | 481 nm | 4.3 | 444 nm | 4.2 | 401 nm | λmax em ([1]; PBS buffer): 666 nm; Voltage sensitivity ΔF/F per 100 mV ([3]; Ex/Em 545/>695 nm): 6% 545/ >695
4 | CCCCN(CCCC)c1ccc2cc(/C=C/c3cc[n+](CCC[N+](CC)(CC)CC)cc3F)ccc2c1F [PY3179] | 0.003 | 720 nm | 0.22 | 632 nm | — (FQY < 0.001) | 0.91 | 4.3 | 509 nm | 4.3 | 465 nm | 4.1 | 414 nm | Voltage sensitivity ΔF/F per 100 mV ([3]; Ex/Em 572/>695 nm): 18% 572/ >695
5 | CCCCN(CCCC)c1ccc2cc(/C=C/c3c(F)c[n+](CCC[N+](CC)(CC)CC)cc3F)ccc2c1 [PY3184] | 0.004 | 658 nm | 0.18 | 646 nm | — (FQY < 0.001) | 1.56 | 4.6 | 569 nm | 4.3 | 511 nm | 4.2 | 530 nm | Voltage sensitivity ΔF/F per 100 mV ([3]; Ex/Em 610/>695 nm): 11% 610/ >695
6 | CCCCN(CCCC)c1ccc2cc(/C=C/c3c(F)c[n+](CCC[N+](CC)(CC)CC)c4ccccc34)ccc2c1 [PY3304] | 0.001 | 825 nm | 0.03 | 686 nm | — (FQY < 0.001) | 5.26 | 4.4 | 617 nm | 4.2 | 547 nm | 4.0 | 565 nm | Voltage sensitivity ΔF/F per 100 mV ([3]; Ex/Em 645/>745 nm): 12% 645/ >745
7 | CCCCN(CCCC)c1ccc2cc(/C=C(\F)c3cc[n+](CCC[N+](CC)(CC)CC)cc3)ccc2c1F [PY4038] | 0.001 | 760 nm | 0.26 | 643 nm | — (FQY < 0.001) | 0.62 | 4.4 | 497 nm | 4.3 | 464 nm | 4.0 | 409 nm | Voltage sensitivity ΔF/F per 100 mV ([3]; Ex/Em 578/>695 nm): 7% 578/ >695
8 | CCCCN(CCCC)c1ccc2cc(/C=C/c3cc[n+](CCC[N+](CC)(CC)CC)cc3)ccc2c1C(F)(F)F [PY4093] | 0.046 | 687 nm | 0.35 | 597 nm | 0.005 | 0.95 | 4.6 | 449 nm | 4.5 | 418 nm | 4.3 | 430 nm | λmax em ([1]; PBS buffer): 715 nm; Voltage sensitivity ΔF/F per 100 mV ([3]; Ex/Em 530/>645 nm): 8% 530/ >645
9 | CCCCN(CCCC)c1ccc2cc(/C=C(\F)c3cc[n+](CCC[N+](CC)(CC)CC)cc3)ccc2c1C(F)(F)F [PY4125] | 0.006 | 694 nm | 0.30 | 590 nm | 0.004 | 1.35 | 4.4 | 453 nm | 4.4 | 422 nm | 4.2 | 395 nm | λmax em ([1]; PBS buffer): 624 nm; Voltage sensitivity ΔF/F per 100 mV ([3]; Ex/Em 510/>695 nm): 5% 510/ >695
10 | CCCCN(CCCC)c1ccc2cc(/C=C(\F)c3cc[n+](CCC[N+](CC)(CC)CC)cc3F)ccc2c1F [PY4158] | 0.003 | 845 nm | 0.23 | 651 nm | — (FQY < 0.001) | 0.89 | 4.3 | 510 nm | 4.2 | 470 nm | 4.0 | 408 nm | Voltage sensitivity ΔF/F per 100 mV ([3]; Ex/Em 580/>695 nm): 7% 580/ >695
11 | CCCCN(CCCC)c1ccc2cc(/C=C(\F)c3cc[n+](CCC[N+](CC)(CC)CC)cc3F)ccc2c1 [PY4160] | 0.003 | 710 nm | 0.21 | 660 nm | — (FQY < 0.001) | 0.66 | 4.6 | 558 nm | 4.5 | 500 nm | 4.4 | 513 nm | Voltage sensitivity ΔF/F per 100 mV ([3]; Ex/Em 602/>695 nm): 10% 602/ >695
12 | CCCCN(CCCC)c1ccc2cc(/C=C/c3c(F)c[n+](CCC[N+](CC)(CC)CC)c4ccccc34)ccc2c1 [PY4221] | — (FQY < 0.001) |  | 0.07 | 743 nm | — (FQY < 0.001) |  | 4.4 | 627 nm | 4.2 | 553 nm | 4.1 | 537 nm | Voltage sensitivity ΔF/F per 100 mV ([3]; Ex/Em 670/>780 nm): 6% 670/ >780
